# Experimental data: PubChem BioAssay AID2060905 (Molecular Pharmacology Branch, DTP, NCI, 2025)
# pIC50: −log10 of the molar value.
# Tested on: 282377-053-R-J1-PDC complex spheroid viability
# Experiment: Anticancer human tumor 282377-053-R-J1-PDC patient-derived colon adenocarcinoma cell line growth inhibition [RAS]
# Conditions: for pIC50: curve of first compound; for viability, T/C: stronger effect = lower value
# Summary of the method: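 Multi-cell-type spheroids: tumor cells plus HUVEC endothelial cells and mesenchymal stem cells. RAS-pathway inhibitors were combined with targeted agents, each dosed in half-log steps down from clinical Cmax, or from 10 microM when Cmax was unknown.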
# 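Note: spheroids exposed to agents for seven days before readout.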
# 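Throughout, for viability, T/C: luminescence viability as percent of DMSO vehicle control wells.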
smiles,measurement,setting,value
CCc1c2c(nc3ccc(O)cc13)-c1cc3c(c(=O)n1C2)COC(=O)[C@]3(O)CC + C#Cc1c(F)ccc2cc(O)cc(-c3ncc4c(N5CC6CCC(C5)N6)nc(OCC56CCCN5CC(F)C6)nc4c3F)c12,pIC50,second compound 0.0316 µM,< 6.52
same,pIC50,second compound 0.1 µM,< 6.52
same,pIC50,second compound 0.316 µM,< 6.52
same,pIC50,second compound 1 µM,< 6.52
same,pIC50,second compound 3.16 µM,< 6.52
same,pIC50,second compound 10 µM,< 6.52
same,"viability, T/C","second compound 0.0316 µM, first compound 0.000949 µM",97%
same,"viability, T/C","second compound 0.0316 µM, first compound 0.003 µM",131%
same,"viability, T/C","second compound 0.0316 µM, first compound 0.00949 µM",120%
same,"viability, T/C","second compound 0.0316 µM, first compound 0.03 µM",96.8%
same,"viability, T/C","second compound 0.0316 µM, first compound 0.0949 µM",88.2%
same,"viability, T/C","second compound 0.0316 µM, first compound 0.3 µM",53%
same,"viability, T/C","second compound 0.1 µM, first compound 0.000949 µM",113%
same,"viability, T/C","second compound 0.1 µM, first compound 0.003 µM",122%
same,"viability, T/C","second compound 0.1 µM, first compound 0.00949 µM",130%
same,"viability, T/C","second compound 0.1 µM, first compound 0.03 µM",95.8%
same,"viability, T/C","second compound 0.1 µM, first compound 0.0949 µM",84.5%
same,"viability, T/C","second compound 0.1 µM, first compound 0.3 µM",61.4%
same,"viability, T/C","second compound 0.316 µM, first compound 0.000949 µM",117%
same,"viability, T/C","second compound 0.316 µM, first compound 0.003 µM",128%
same,"viability, T/C","second compound 0.316 µM, first compound 0.00949 µM",109%
same,"viability, T/C","second compound 0.316 µM, first compound 0.03 µM",101%
same,"viability, T/C","second compound 0.316 µM, first compound 0.0949 µM",85.6%
same,"viability, T/C","second compound 0.316 µM, first compound 0.3 µM",55.6%
same,"viability, T/C","second compound 1 µM, first compound 0.000949 µM",108%
same,"viability, T/C","second compound 1 µM, first compound 0.003 µM",104%
same,"viability, T/C","second compound 1 µM, first compound 0.00949 µM",113%
same,"viability, T/C","second compound 1 µM, first compound 0.03 µM",95.3%
same,"viability, T/C","second compound 1 µM, first compound 0.0949 µM",80.1%
same,"viability, T/C","second compound 1 µM, first compound 0.3 µM",61%
same,"viability, T/C","second compound 3.16 µM, first compound 0.000949 µM",115%
same,"viability, T/C","second compound 3.16 µM, first compound 0.003 µM",127%
same,"viability, T/C","second compound 3.16 µM, first compound 0.00949 µM",125%
same,"viability, T/C","second compound 3.16 µM, first compound 0.03 µM",100%
same,"viability, T/C","second compound 3.16 µM, first compound 0.0949 µM",97.5%
same,"viability, T/C","second compound 3.16 µM, first compound 0.3 µM",66.3%
same,"viability, T/C","second compound 10 µM, first compound 0.000949 µM",97.1%
same,"viability, T/C","second compound 10 µM, first compound 0.003 µM",112%
same,"viability, T/C","second compound 10 µM, first compound 0.00949 µM",116%
same,"viability, T/C","second compound 10 µM, first compound 0.03 µM",102%
same,"viability, T/C","second compound 10 µM, first compound 0.0949 µM",87.9%
same,"viability, T/C","second compound 10 µM, first compound 0.3 µM",63.5%
C=CC(=O)Nc1cc(Nc2nccc(-c3cn(C)c4ccccc34)n2)c(OC)cc1N(C)CCN(C)C + C=CC(=O)N1CCN(c2nc(OCC3CCCN3C)nc3c(F)c(-c4nc(N)cc(C)c4C(F)(F)F)c(Cl)cc23)C(C)C1,pIC50,second compound 0.00316 µM,< 6.00
same,pIC50,second compound 0.01 µM,< 6.00
same,pIC50,second compound 0.0316 µM,< 6.00
same,pIC50,second compound 0.1 µM,< 6.00
same,pIC50,second compound 0.316 µM,< 6.00
same,pIC50,second compound 1 µM,< 6.00
same,"viability, T/C","second compound 0.00316 µM, first compound 0.00316 µM",126%
same,"viability, T/C","second compound 0.00316 µM, first compound 0.01 µM",113%
same,"viability, T/C","second compound 0.00316 µM, first compound 0.0316 µM",124%
same,"viability, T/C","second compound 0.00316 µM, first compound 0.1 µM",102%
same,"viability, T/C","second compound 0.00316 µM, first compound 0.316 µM",112%
same,"viability, T/C","second compound 0.00316 µM, first compound 1 µM",114%
same,"viability, T/C","second compound 0.01 µM, first compound 0.00316 µM",123%
same,"viability, T/C","second compound 0.01 µM, first compound 0.01 µM",111%
same,"viability, T/C","second compound 0.01 µM, first compound 0.0316 µM",100%
same,"viability, T/C","second compound 0.01 µM, first compound 0.1 µM",106%
same,"viability, T/C","second compound 0.01 µM, first compound 0.316 µM",109%
same,"viability, T/C","second compound 0.01 µM, first compound 1 µM",100%
same,"viability, T/C","second compound 0.0316 µM, first compound 0.00316 µM",112%
same,"viability, T/C","second compound 0.0316 µM, first compound 0.01 µM",112%
same,"viability, T/C","second compound 0.0316 µM, first compound 0.0316 µM",100%
same,"viability, T/C","second compound 0.0316 µM, first compound 0.1 µM",124%
same,"viability, T/C","second compound 0.0316 µM, first compound 0.316 µM",114%
same,"viability, T/C","second compound 0.0316 µM, first compound 1 µM",96.3%
same,"viability, T/C","second compound 0.1 µM, first compound 0.00316 µM",118%
same,"viability, T/C","second compound 0.1 µM, first compound 0.01 µM",107%
same,"viability, T/C","second compound 0.1 µM, first compound 0.0316 µM",136%
same,"viability, T/C","second compound 0.1 µM, first compound 0.1 µM",113%
same,"viability, T/C","second compound 0.1 µM, first compound 0.316 µM",94.7%
same,"viability, T/C","second compound 0.1 µM, first compound 1 µM",120%
same,"viability, T/C","second compound 0.316 µM, first compound 0.00316 µM",122%
same,"viability, T/C","second compound 0.316 µM, first compound 0.01 µM",107%
same,"viability, T/C","second compound 0.316 µM, first compound 0.0316 µM",110%
same,"viability, T/C","second compound 0.316 µM, first compound 0.1 µM",105%
same,"viability, T/C","second compound 0.316 µM, first compound 0.316 µM",121%
same,"viability, T/C","second compound 0.316 µM, first compound 1 µM",122%
same,"viability, T/C","second compound 1 µM, first compound 0.00316 µM",139%
same,"viability, T/C","second compound 1 µM, first compound 0.01 µM",116%
same,"viability, T/C","second compound 1 µM, first compound 0.0316 µM",114%
same,"viability, T/C","second compound 1 µM, first compound 0.1 µM",118%
same,"viability, T/C","second compound 1 µM, first compound 0.316 µM",121%
same,"viability, T/C","second compound 1 µM, first compound 1 µM",137%
